Consider two molecules from patent publication US9376470B2, “Polypeptide having angiogenesis-inducing activity and antibacterial activity, and use thereof for medical purposes” (FunPep Inc., priority 2008, dated 2016).

The subject of assay [1] is human vascular endothelial cells and fibroblast cells (co-culture, Angiogenesis Kit KZ-1000). The conditions noted are these: 10 μg/mL, length of lumina. As for the experimental part: Using AG30-5C as a positive control, the angiogenesis-inducing activity of SR-1 and SR-2 was measured. […] As a negative control, polypeptide-free group (Control) was used.
Cells were cultured at 37° C. under 5% CO2 in a 24-well plate using the special media to which the polypeptide was added. The medium was replaced with a medium containing the same polypeptide on day 4, day 7 and day 9 of culture. On day 11 from the beginning of the culture, the medium was removed and staining was performed using a kit for staining lumina (for CD31 antibody staining) according to the following procedure.
The primary antibody (mouse anti-human CD31 antibody) was 4000-fold diluted with a blocking solution (Dulbecco's phosphate buffered saline (PBS(−)) containing 1% BSA). To each well, 0.5 mL of this primary antibody solution was added, and the plate was incubated for 60 minutes at 37° C. After the completion of the incubation, each well was washed totally 3 times with 1 mL of the blocking solution.
Then, 0.5 mL of a secondary antibody solution (goat anti-mouse IgG/alkaline phosphatase conjugate) 500-fold diluted with the blocking solution was added to each well. The plate was incubated for 60 minutes at 37° C., and thereafter each well was washed 3 times with 1 mL of distilled water. During that period, 2 tablets of BCIP/NBT were dissolved into distilled water, and the obtained solution was filtered through a filter having a pore size of 0.2 μm to prepare a substrate solution. To each well, 0.5 mL of the prepared BCIP/NBT substrate solution was added, and the plate was incubated at 37° C. until the lumina turned to deep purple (typically for 5-10 minutes). After the completion of the incubation, each well was washed 3 times with 1 mL of distilled water. After washing, the washing solution was removed by aspiration, and the plate was left to stand and dry naturally. After drying, photographs of each well were taken under a microscope.
Each of the obtained images was quantified using an angiogenesis quantification software. Computer analysis was carried out on various parameters.

The subject of assay [2] is HWY/slc hairless rats, full-thickness defect infected with Staphylococcus aureus. Put plainly: Healing effect in rat infected-wound model. The format is in vivo. The procedure:
Referring to Stenberg B D et al. (J Surg Res. 1991 January; 50(1):47-50.) and Hayward P et al. (Am J. Surg. 1992 March; 163(3):288-93.), a rat infected-wound model was produced as described below. […] hairless rats (male, 7-week old, obtained from Japan SLC, Inc.) were used. The day before full-thickness defects were created, the number of leukocytes was measured and cyclophosphamide was administered in tail vein (100 mg/kg). On the next day, the number of leukocytes was counted. Only the individuals in which the number of leukocytes was not more than 5000, were used. […] After administering the test substances, the wound sites were covered with a covering (PERME-ROLL, Nitto Medical Corporation) (day 0). […] Six days after the full-thickness defects were created (day 6), the area where the wounds had still not healed was measured to calculate the ratio of it relative to the area where the wounds were created, and the ratio was regarded as the wound area ratio on day 6.

Peptide text beside a SMILES is read from it.

In the case of `CC[C@H](C)[C@H](NC(=O)[C@H](CC(C)C)NC(=O)[C@H](CCCCN)NC(=O)[C@H](CC(C)C)NC(=O)[C@@H](N)CCSC)C(=O)N[C@@H](Cc1ccccc1)C(=O)N[C@@H](CC(C)C)C(=O)N[C@@H](Cc1c[nH]cn1)C(=O)N[C@@H](CCCNC(=N)N)C(=O)N[C@@H](CC(C)C)C(=O)N[C@@H](CCCCN)C(=O)N[C@@H](CCCNC(=N)N)C(=O)N[C@@H](CCSC)C(=O)N[C@@H](CCCNC(=N)N)C(=O)N[C@@H](CCCCN)C(=O)N[C@@H](CCCNC(=N)N)C(=O)N[C@@H](CC(C)C)C(=O)N[C@@H](CCCCN)C(=O)N[C@@H](CCCNC(=N)N)C(=O)N[C@@H](CCCCN)C(=O)O` [SR-1] (H-MLKLIFLHRLKRMRKRLKRK-OH; N-terminus assumed), the “angiogenesis-inducing activity compared with AG30-5C” value in assay [1] is “higher than AG30-5C”. The “Wound area ratio on day 6” value in assay [2] (SR-1 50 μg, bFGF formulation 3 μg/25 μL, once a day days 0-3) worked out at 80.2. In assay [2] (compared with the bFGF formulation), the “healing effect on wounds associated with infection” value was “higher healing effect compared with the bFGF formulation”.

Consider `CC(C)C[C@H](NC(=O)[C@H](CCCCN)NC(=O)[C@H](CCCNC(=N)N)NC(=O)[C@H](CCCCN)NC(=O)[C@H](CC(C)C)NC(=O)[C@H](CCCNC(=N)N)NC(=O)[C@H](CCCCN)NC(=O)[C@H](CCCNC(=N)N)NC(=O)[C@H](CC(C)C)NC(=O)[C@H](CCCNC(=N)N)NC(=O)[C@H](CCCNC(=N)N)NC(=O)[C@H](CCCCN)NC(=O)[C@H](CC(C)C)NC(=O)[C@H](CCCNC(=N)N)NC(=O)[C@H](Cc1c[nH]cn1)NC(=O)[C@H](CC(C)C)NC(=O)[C@H](Cc1ccccc1)NC(=O)[C@H](CCCNC(=N)N)NC(=O)[C@H](CC(C)C)NC(=O)[C@@H](N)CCC(=O)O)C(=O)N[C@@H](CCCNC(=N)N)C(N)=O` [SR-2] (H-ELRFLHRLKRRLRKRLKRKLR-NH2; N-terminus assumed), for which the “angiogenesis-inducing activity compared with AG30-5C” value in assay [1] is given as “higher than AG30-5C”.
